This note sets out measurements from ChEMBL document CHEMBL6127091, “Design, synthesis, and evaluation of chalcone derivatives as xanthine oxidase inhibitors” (Eur J Med Chem, 2024).

Molecules are shown by their SMILES. Activity calls are given as the source filed them. The rule behind the calls is not given here.

The target of data set [1] is Xanthine dehydrogenase/oxidase (Bos taurus, UniProt P80457). The experiment in a line: Inhibition of bovine milk xanthine oxidase using xanthine as substrate preincubated for 30 mins followed by substrate addition by absorbance based analysis.
Xanthine dehydrogenase/oxidase (Bos taurus, UniProt P80457), sequence (P80457 whole entry): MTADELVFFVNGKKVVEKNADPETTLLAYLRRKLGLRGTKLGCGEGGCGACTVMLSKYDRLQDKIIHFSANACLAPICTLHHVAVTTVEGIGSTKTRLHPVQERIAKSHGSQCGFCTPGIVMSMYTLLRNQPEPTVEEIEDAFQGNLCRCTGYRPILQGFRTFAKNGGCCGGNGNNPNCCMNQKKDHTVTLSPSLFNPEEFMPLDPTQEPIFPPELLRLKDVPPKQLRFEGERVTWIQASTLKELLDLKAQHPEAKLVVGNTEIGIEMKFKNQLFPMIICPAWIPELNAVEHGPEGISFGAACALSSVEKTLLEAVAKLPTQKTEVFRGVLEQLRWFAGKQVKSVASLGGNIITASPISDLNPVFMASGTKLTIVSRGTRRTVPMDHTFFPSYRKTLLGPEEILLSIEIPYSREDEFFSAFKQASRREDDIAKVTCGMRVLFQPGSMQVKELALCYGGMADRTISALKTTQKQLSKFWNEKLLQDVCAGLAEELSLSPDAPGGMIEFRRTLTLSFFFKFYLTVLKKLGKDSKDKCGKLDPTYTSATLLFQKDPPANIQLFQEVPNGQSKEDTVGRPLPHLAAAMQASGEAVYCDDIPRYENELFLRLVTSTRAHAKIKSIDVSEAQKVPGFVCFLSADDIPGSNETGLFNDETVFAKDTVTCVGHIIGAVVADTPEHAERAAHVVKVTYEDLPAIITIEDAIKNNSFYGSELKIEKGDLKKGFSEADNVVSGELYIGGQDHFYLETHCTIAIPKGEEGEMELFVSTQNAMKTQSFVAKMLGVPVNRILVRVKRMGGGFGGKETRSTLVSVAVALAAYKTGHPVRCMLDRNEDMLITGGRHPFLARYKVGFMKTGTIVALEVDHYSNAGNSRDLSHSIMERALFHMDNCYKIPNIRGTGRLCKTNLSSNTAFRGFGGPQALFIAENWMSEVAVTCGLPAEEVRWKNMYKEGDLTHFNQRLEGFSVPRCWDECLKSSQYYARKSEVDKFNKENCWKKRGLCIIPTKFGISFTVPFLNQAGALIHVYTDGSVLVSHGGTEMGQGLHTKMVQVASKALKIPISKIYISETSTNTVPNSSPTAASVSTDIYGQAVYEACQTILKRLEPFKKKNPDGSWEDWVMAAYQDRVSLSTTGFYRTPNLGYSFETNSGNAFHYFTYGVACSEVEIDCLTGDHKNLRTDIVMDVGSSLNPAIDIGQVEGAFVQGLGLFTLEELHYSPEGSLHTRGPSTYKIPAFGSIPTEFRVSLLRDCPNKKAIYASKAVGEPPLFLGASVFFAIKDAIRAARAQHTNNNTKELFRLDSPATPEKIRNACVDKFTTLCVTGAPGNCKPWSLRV
Data set [2] addresses T1, Xanthine dehydrogenase/oxidase (Homo sapiens, UniProt P47989). The experiment in a line: Inhibition of xanthine oxidase (unknown origin) using xanthine as substrate preincubated for 20 mins followed by substrate addition measured for 5 mins by absorbance based analysis.
Data set [3] addresses T1, Xanthine dehydrogenase/oxidase. The experiment in a line: Inhibition of xanthine oxidase (unknown origin).
For data set [4] the target is unchanged. The experiment in a line: Reversible inhibition of xanthine oxidase (unknown origin) using xanthine as substrate by absorbance based analysis.
For data set [5] the target is unchanged. The experiment in a line: Mixed-type inhibition of xanthine oxidase (unknown origin) using xanthine as substrate by absorbance based analysis.
The subject of the next data set is AML12. The experiment in a line: Cytotoxicity in mouse AML12 cells at 1 to 20 uM incubated for 24 hrs by MTT assay. It is filed as toxicity, cell-based. Conditions: aml12, 24 h, dose 1-20 µM. (Formazan colour is commonly taken as a measure of viable cells.)
Data set [6] can be described thus: Effect on serum creatinine level in PO-induced hyperuricemia Sprague-Dawley rat model at 10 to 40 mg/kg, po measure upto 8 hrs. It is filed as toxicity, organism-based. Conditions: in vivo, dose 10-40 mg/kg.
A short description of data set [7]: Effect on BUN level in PO-induced hyperuricemia Sprague-Dawley rat model at 10 to 40 mg/kg, po measure upto 8 hrs. Conditions: in vivo, dose 10-40 mg/kg. The class given is toxicity, organism-based.
Data set [8] concerns Rattus norvegicus. The experiment in a line: Anti-hyperuricemia effect in PO-induced hyperuricemia Sprague-Dawley rat model assessed as decrease in serum uric acid level at 10 mg/kg, po measured for 1 to 6 hrs. The class given is functional, organism-based. Conditions: time 1-6 hrs.
Data set [9] in a line: Effect on serum AST/ALT ratio in PO-induced hyperuricemia Sprague-Dawley rat model at 10 to 40 mg/kg, po measure upto 8 hrs. The class given is toxicity, organism-based. Conditions: in vivo, dose 10-40 mg/kg.
Data set [10] has as its system Rattus norvegicus. Briefly: Anti-hyperuricemia effect in PO-induced hyperuricemia Sprague-Dawley rat model assessed as decrease in serum uric acid level at 10 to 40 mg/kg, po measured after 2 hrs. Conditions: dose 10-40 mg/kg. The class given is functional, organism-based.
Data set [11] is described as follows: Effect on serum AST/ALT ratio in PO-induced hyperuricemia Sprague-Dawley rat model at 10 mg/kg, po measure upto 8 hrs. It is filed as toxicity, organism-based. Conditions: in vivo.
Data set [12] deals with Rattus norvegicus. Briefly: Anti-hyperuricemia effect in PO-induced hyperuricemia Sprague-Dawley rat model assessed as decrease in serum uric acid level at 10 mg/kg, po measured after 2 hrs. The class given is functional, organism-based.
The nature of data set [13]: Effect on serum creatinine level in PO-induced hyperuricemia Sprague-Dawley rat model at 10 mg/kg, po measure upto 8 hrs. It is filed as toxicity, organism-based. Conditions: in vivo.
Data set [14] is described as follows: Cytotoxicity in mouse AML12 cells assessed as cell viability at 20 uM incubated for 24 hrs by MTT assay relative to control. Conditions: read-out: Activity. The class given is toxicity, cell-based.
Data set [15] in a line: Cytotoxicity in mouse AML12 cells assessed as cell viability at 1 to 10 uM incubated for 24 hrs by MTT assay relative to control. It is filed as toxicity, cell-based. Conditions: dose 1-10 µM, read-out: Activity.

T1 sequence (P47989 whole entry): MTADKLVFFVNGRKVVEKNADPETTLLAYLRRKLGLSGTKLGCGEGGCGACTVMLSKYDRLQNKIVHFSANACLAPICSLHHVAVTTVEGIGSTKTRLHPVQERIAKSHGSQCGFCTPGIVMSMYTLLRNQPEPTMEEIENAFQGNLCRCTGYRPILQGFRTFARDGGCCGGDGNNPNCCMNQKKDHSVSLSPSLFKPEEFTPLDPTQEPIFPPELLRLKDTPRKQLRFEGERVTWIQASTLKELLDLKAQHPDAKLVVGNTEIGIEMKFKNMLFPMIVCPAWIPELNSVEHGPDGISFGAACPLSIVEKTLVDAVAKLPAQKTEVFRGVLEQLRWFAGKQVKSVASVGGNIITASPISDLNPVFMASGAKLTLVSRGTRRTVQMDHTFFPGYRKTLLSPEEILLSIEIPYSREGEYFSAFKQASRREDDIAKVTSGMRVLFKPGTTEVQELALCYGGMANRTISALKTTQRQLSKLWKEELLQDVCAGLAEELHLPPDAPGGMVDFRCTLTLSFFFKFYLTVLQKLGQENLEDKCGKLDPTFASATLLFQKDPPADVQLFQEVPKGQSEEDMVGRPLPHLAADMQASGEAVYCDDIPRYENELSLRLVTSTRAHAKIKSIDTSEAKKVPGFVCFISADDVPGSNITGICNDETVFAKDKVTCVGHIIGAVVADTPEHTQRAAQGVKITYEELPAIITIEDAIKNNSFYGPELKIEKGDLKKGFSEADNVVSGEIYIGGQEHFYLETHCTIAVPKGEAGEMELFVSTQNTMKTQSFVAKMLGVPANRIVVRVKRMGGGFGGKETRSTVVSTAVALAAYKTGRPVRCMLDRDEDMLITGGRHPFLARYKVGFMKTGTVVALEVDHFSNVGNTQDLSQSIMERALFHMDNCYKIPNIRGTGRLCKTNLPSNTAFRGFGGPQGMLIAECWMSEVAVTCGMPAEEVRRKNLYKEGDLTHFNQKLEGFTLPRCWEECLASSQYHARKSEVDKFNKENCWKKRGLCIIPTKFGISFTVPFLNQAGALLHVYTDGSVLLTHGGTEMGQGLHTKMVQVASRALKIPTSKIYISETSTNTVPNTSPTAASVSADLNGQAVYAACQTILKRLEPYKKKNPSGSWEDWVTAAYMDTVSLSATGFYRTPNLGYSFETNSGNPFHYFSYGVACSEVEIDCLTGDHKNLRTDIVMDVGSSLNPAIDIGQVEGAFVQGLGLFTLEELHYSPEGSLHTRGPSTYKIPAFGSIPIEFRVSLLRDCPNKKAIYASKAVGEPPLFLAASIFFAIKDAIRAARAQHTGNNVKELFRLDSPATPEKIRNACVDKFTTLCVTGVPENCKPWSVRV

One may read the IC50 as the midpoint of a concentration-inhibition curve. A higher IC50 goes with a need for much substance. Take `CCOc1ccc(C(=O)/C=C/c2cc(C(=O)O)ccc2O)cc1`: 484 nM corresponded to half-maximal inhibition in data set [1] (IC50).
In turn, `CC(=O)c1ccc(C(=O)/C=C/c2cc(C(=O)O)ccc2O)cc1` showed an IC50 in data set [1] of 248 nM.
Still for that read-out and setting: next, `C=CCOc1ccc(C(=O)/C=C/c2cc(C(=O)O)ccc2O)cc1`: 404 nM; `O=C(O)c1ccc(O)c(/C=C/C(=O)c2ccc3c(c2)OCO3)c1`: 178 nM.
Same read-out and setting: next, `C[S+]([O-])c1ccc(C(=O)/C=C/c2cc(C(=O)O)ccc2O)cc1` (configuration not stated): 311 nM.
The same measure, in the same setting: next, `O=C(O)c1ccc(O)c(/C=C/C(=O)c2nccs2)c1`: 226 nM; `O=C(O)c1ccc(O)c(/C=C/C(=O)c2cccc3ccccc23)c1`: 222 nM; `O=C(O)c1ccc(O)c(/C=C/C(=O)c2ccc3ccccc3c2)c1`: 213 nM.
Regarding `O=C(O)c1ccc(O)c(/C=C/C(=O)c2ccc3c(c2)CCC3)c1`, in data set [1], the IC50 was determined as 559 nM.
Same read-out and setting: next, `O=C(O)c1ccc(O)c(/C=C/C(=O)c2ccc3c(c2)OCCO3)c1`: 185 nM.
The same measure, in the same setting: as for `O=C(O)c1ccc(O)c(/C=C/C(=O)c2ccncc2)c1`, the figure is 309 nM; as for `CCCOc1ccc(C(=O)/C=C/c2cc(C(=O)O)ccc2O)cc1`, 542 nM.
The same measure, in the same setting: as for `CS(=O)(=O)c1ccc(C(=O)/C=C/c2cc(C(=O)O)ccc2O)cc1`, the figure is 109 nM.
`O=C(O)c1ccc(O)c(/C=C/C(=O)c2ccc3c(c2)CCO3)c1` returned a 50% inhibitory concentration (IC50) in [1] of 155 nM.
Same read-out and setting: next, `O=C(O)c1ccc(O)c(/C=C/C(=O)c2ccccc2)c1`: 206 nM.
In [2], `COc1ccc(C(=O)/C=C/c2ccc(O)cc2)cc1` displayed an IC50 of 4500 nM.
`CN(C)c1ccc(C(=O)/C=C/c2cc(C(=O)O)ccc2O)cc1` registered an IC50 in data set [1] of 117 nM.
On the same count and under the same terms, next, `O=C(O)c1ccc(O)c(/C=C/C(=O)c2ccccn2)c1`: 307 nM; `CC1(C)CCSc2ccc(C(=O)/C=C/c3cc(C(=O)O)ccc3O)cc21`: 368 nM.
Still for that read-out and setting: as for `CC(C)(C)c1ccc(C(=O)/C=C/c2cc(C(=O)O)ccc2O)cc1`, the figure is 555 nM.
Compound `COc1ccc(C(=O)/C=C/c2ccc(C(=O)O)cc2)cc1` registered an IC50 in data set [3] of 100 nM.
Compound `CC(C)COc1ccc(C(=O)/C=C/c2cc(C(=O)O)ccc2O)cc1` returned an IC50 in data set [1] of 306 nM. In other words, the sub-micromolar range.
Same read-out and setting: as for `O=C(O)c1ccc(O)c(/C=C/C(=O)c2cccnc2)c1`, the figure is 297 nM; as for `CCCc1ccc(C(=O)/C=C/c2cc(C(=O)O)ccc2O)cc1`, 211 nM.
For the compound `O=C(O)c1ccc(O)c(/C=C/C(=O)c2ccc3c(c2)CCN3)c1`, the “inhibition (INH)” value in [4] and in data set [5] was “Active” throughout. Also, the Activity result in the data set on AML12 is given as “Non-Toxic”. This compound also came in with an IC50 in data set [1] of 64 nM.
`C#Cc1ccc(C(=O)/C=C/c2cc(C(=O)O)ccc2O)cc1` came in with an IC50 in data set [1] of 127 nM. That is a sub-micromolar value.
Same read-out and setting: next, `CSc1ccc(C(=O)/C=C/c2cc(C(=O)O)ccc2O)cc1`: 193 nM; `C#CCOc1ccc(C(=O)/C=C/c2cc(C(=O)O)ccc2O)cc1`: 274 nM.
As for `O=C(O)c1ccc(O)c(/C=C/C(=O)c2cc[nH]c2)c1`, in [1], the IC50 was 301 nM.
With `CNc1ccc(C(=O)/C=C/c2cc(C(=O)O)ccc2O)cc1`, the Activity result (in data set [6]; in data set [7]; in data set [9]; in the data set with AML12) was “Non-Toxic” in each case. Besides, the result in the data set with Rattus norvegicus [8] and in the data set with Rattus norvegicus [10] was Active. In addition, the “inhibition (INH)” value in data set [4] and in data set [5] was “Active” in each case. In addition, the IC50 in [1] came out at 102 nM.
`Cc1ccc(C(=O)/C=C/c2cc(C(=O)O)ccc2O)cc1` returned an IC50 in data set [1] of 176 nM.
On the same count and under the same terms, as for `O=C(O)c1ccc(O)c(/C=C/C(=O)c2ccsc2)c1`, the figure is 215 nM; as for `COc1ccc(C(=O)/C=C/c2cc(C(=O)O)ccc2O)cc1`, 266 nM.
On to `Oc1ncnc2[nH]ncc12` [ALLOPURINOL], for which the Activity entry in data set [11] is “Non-Toxic”; in [13], “Toxic”. Moreover, in the data set on Rattus norvegicus [12], the result was Active.
Compound `CCCCOc1ccc(C(=O)/C=C/c2cc(C(=O)O)ccc2O)cc1` yielded an IC50 in data set [1] of 294 nM.
As to `O=C(O)c1ccc(/C=C/C(=O)c2ccc(O)cc2)cc1`, in [3], the IC50 stood at 300 nM.
Consider `O=C(/C=C/c1ccc(O)cc1)c1ccc(O)c(O)c1`, for which the IC50 in data set [2] worked out at 5600 nM.
As to `O=C(O)c1ccc(O)c(/C=C/C(=O)c2ccc3[nH]ccc3c2)c1`, the half-inhibitory concentration (IC50) in data set [1] amounted to 139 nM.
For the compound `CCc1ccc(C(=O)/C=C/c2cc(C(=O)O)ccc2O)cc1`, the viability at 24 h, 20 µM in [14] was determined as 82.1%. Besides, the “inhibition (INH)” value in data set [4] and in data set [5] was “Active” each time. In data set [15], the viability at 24 h, up to 10 µM is above 90%. Moreover, in [1], 84 nM corresponded to half-maximal inhibition (IC50).
As for `O=C(O)c1ccc(O)c(/C=C/C(=O)c2ccc3ncccc3c2)c1`, it took 196 nM to reach half-maximal inhibition in data set [1] (IC50).
